# Earlier results as cited in patent publication US20050272741A1, “Novel methods of treatment for Fontan patients with protein losing enteropathy” (priority 2004, published 2005).
# Test system: mesenteric bed
# Conditions: pretreatment with Viagra, high dose Norepinephrine
smiles,measurement,value
"CCCc1nn(C)c2c(=O)[nH]c(-c3cc(S(=O)(=O)N4CCN(C)CC4)ccc3OCC)nc12 [Viagra, Sildenafil]",Mesenteric relaxation / constriction of the mesenteric bed,even high dose Norepinephrine fails to constrict the mesenteric bed
